In brackets after ≈: the same amount, converted by molar mass. Structures can show the parent of a compound that is named as a salt. Where two headings read alike, the source gives them in different places.
Assays:
P388S cells = assay: In vitro growth inhibition of P388S cells; type: cell-based; conditions: for IC50: Mus musculus, P388/S, read-out: P388S IC50
P388/ADR cells [1] = assay: In vitro growth inhibition of P388/ADR cells; type: cell-based, murine; conditions: for IC50: Mus musculus, P388/ADR; for R/S: ratio resistant (P388/ADR) to sensitive (P388S) IC50
C26/10 tumor = assay: C26/10 s.c. tumor growth delay study; type: in vivo, CD2F1 mice; conditions: tumor growth delay to 750 mg, s.c. implant, treated i.p. Days 3-7 and 10-14; >5 to 6 days = antitumor effect
Description: (§1) To test compounds of the present invention in vivo, the following methodology was used. P388 leukemia and its Adriamycin resistant subline, P388/ADR were passed weekly in DBA/2 mice as i.p. implants of 10^5 and 10^6 cells, respectively. Animals bearing P388/ADR passage were treated with 7 mg/kg Adriamycin on Day 3 post-implant as a resistance selection pressure. C26/clone 10 was passed every 2 weeks into Balb/c mice as tumor fragments (approximately 30 mg) which were obtained from tumors 1 g in mass.
For the tumor growth delay studies with C26/10, CD2F1 mice were implanted s.c. with 30 mg tumor fragments in the region of the right axilla with the aid of a trocar on Day 0. Animals were treated i.p. with test agents in the vehicles described above on Days 3-7 and 10-14. Adriamycin was dosed i.p. in saline on Days 5, 9, and 13. Tumors in the treated and control groups were measured twice weekly in two perpendicular dimensions and tumor mass calculated according to the formula: mass (mg)=(a×b^2)/2 where “b” is the smallest tumor dimension and “a” is the largest. Calculations of tumor growth delay, defined as the median time (in days) for the treated tumors to reach 750 mg in size minus the median time (in days) for the control tumors to reach 750 mg in size, were as described previously (Schabel, 1977; Leopold, 1985; Elliot, 1984). Growth delays in excess of 5 to 6 days in the C26/10 model are considered to be an antitumor effect.

[2] = test system: P388 murine leukemia cells; assay: Combination of antifolates with FU and LV on P388 proliferation; type: cell-based; conditions: for Antifol + FU / Antifol + LV / Antifol + LV + FU: antifolate 1.0 nM 24 hours; for Antifol + FU / Antifol + LV + FU: 5 μM FU final 4 hours; for Antifol + LV / Antifol + LV + FU: LV 10 μM final 4.5 hours; for Antifol: antifolate 1.0 nM, 24 hours
P388/ADR cells [3] = assay: Combination of antifolates with FU and LV on P388/ADR proliferation; type: cell-based, murine; conditions: for Antifol + FU / Antifol + LV / Antifol + LV + FU / Antifol: P388/ADR; for Antifol + FU / Antifol + LV + FU: 5 μM FU final 4 hours; for Antifol + LV / Antifol + LV + FU: LV 10 μM final 4.5 hours; for Antifol: 24 hours
[4] = test system: HT29 human colon adenocarcinoma cells
[5] = test system: HT29 human colon adenocarcinoma cells; assay: Combination of antifolates with FU and LV on HT-29 proliferation (sulphorhodamine B); conditions: for Antifol: antifolate 62.5 nM, 24 hours
P388 leukemia = assay: In vivo P388 leukemia life span study; set-up: species or system CD2F1 mice; conditions: maximum tolerated dose, i.p. Days 3-11 (Adriamycin Days 3, 7, 11); >130 = antitumor effect
P388/ADR leukemia = assay: In vivo P388/ADR leukemia life span study; set-up: species or system CD2F1 mice; conditions: for P388/ADR T/C: maximum tolerated dose, i.p. Days 3-11 (Adriamycin Days 3, 7, 11), >130 = antitumor effect
[6] = test system: Colon 26/clone 10 (C26/10); assay: Colon 26/clone 10 i.p. life span study; type: in vivo, CD2F1 mice; conditions: for C26 ip T/C: i.p. implant, treated i.p. Days 3-7 and 10-14 (Adriamycin Days 5, 9, 13), >130 = antitumor effect; for activity against C26 colon tumor in vivo: in words, T/C×100>130 represents in vivo antitumor activity
Description: as §1
Colon 26/clone 10 (C26/10) life span studies were conducted in CD2F1 mice. C26/C10 cells were implanted i.p. on Day 0. Animals were treated i.p. with test agents in the vehicles described above on Days 3-7 and 10-14. Adriamycin was dosed i.p. in saline on Days 5, 9, and 13. […] Percent T/C values in excess of 130 are indicative of an antitumor effect in this model.

dihydrofolate reductase = target: T1, dihydrofolate reductase (Homo sapiens, UniProt P00374); assay: Inhibition of dihydrofolate reductase (Table 1); type: biochemical
T1 sequence (P00374 1-187): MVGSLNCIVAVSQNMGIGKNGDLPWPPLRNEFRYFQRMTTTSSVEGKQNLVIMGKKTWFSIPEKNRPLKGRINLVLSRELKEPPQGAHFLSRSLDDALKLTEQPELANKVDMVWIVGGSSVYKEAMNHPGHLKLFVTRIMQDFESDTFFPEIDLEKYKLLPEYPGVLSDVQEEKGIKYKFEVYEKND

[7] = test system: C26 murine colon tumor cells; assay: Combination of antifolates with FU and LV on C26 proliferation; type: cell-based
colon cancer = conditions: cited from earlier work
[8] = antifolate 62.5 nM 24 hours, LV 10 μM final 4.5 hours
[9] = in words, TMQ at a concentration 10-fold higher than the other antifolates

Structure (SMILES) | IC50 (P388/ADR cells [1]; in vitro) [µg/mL] | R/S (P388/ADR cells [1]) | C26 sc T-C (C26/10 tumor) [days] | Antifol + FU [2] | Antifol + LV [2] | Antifol + LV + FU [2] | Antifol [2] | Antifol + FU [4] | Antifol + LV + FU [4] | Antifol + LV [5, 8] | Antifol [5] | P388S T/C (P388 leukemia) [%] | P388/ADR T/C (P388/ADR leukemia) [%] | C26 ip T/C [6] [%] | Ki (dihydrofolate reductase) [nM] | IC50 (P388S cells; in vitro) [µg/mL] | activity against C26 colon tumor in vivo [6] | also measured
Cc1nc(N)nc(N)c1N1CCN(c2ccc(/C=N/OCCN)cc2)CC1 [Example 12, 4-[4-(2,4-Diamino-6-methyl-pyrimidin-5-yl)-piperazin-1-yl]-benzaldehyde O-(2-amino-ethyl)-oxime, dihydrochloride] | 0.0117 | 1.1 | 5.2 | 20% of control | 97% of control | 16% of control | 100% of control | 35% of control | 27% of control | 67% of control | 52% of control |  |  |  |  |  |  | IC50 (P388S cells): 0.011 µg/mL; Antifol + FU (P388/ADR cells [3]; antifolate 1 nM 24 hours): 30% of control; Antifol + LV (P388/ADR cells [3]; antifolate 1 nM 24 hours): 65% of control; Antifol + LV + FU (P388/ADR cells [3]; antifolate 1 nM 24 hours): 25% of control; Antifol (P388/ADR cells [3]; antifolate 1 nM): 65% of control
Nc1ncc(N2CCN(c3ccc(C(=O)O)cc3)CC2)c(N)n1 [G] |  | 0.98 | 4.9 |  |  |  |  |  |  |  |  | 220 | 245 | 202 |  |  |  | P388S IC50 (P388S cells; in vitro): 0.076 µg/mL; P388/ADR IC50 (P388/ADR cells [1]; in vitro): 0.074 µg/mL
CC(=O)c1ccc(N2CCN(c3c(C)nc(N)nc3N)CC2)cc1 [D, 1-{4-[4-(2,4-Diamino-6-methyl-pyrimidin-5-yl)-piperazin-1-yl]-phenyl}-ethanone] | 0.01 (≈ 0.0306 µM) | 1 | 17.3 | 10% of control | 110% of control | 5% of control | 70% of control | 50% of control | 42% of control | 90% of control | 92% of control | 182 | 180 | 171 | 0.131 | 0.01 (≈ 0.0306 µM) |  | 
CC(=O)c1ccc(N2CCN(c3c(C)nc(N)nc3N)CC2)cc1F [H, 1-{4-[4-(2,4-Diamino-6-methyl-pyrimidin-5-yl)-piperazin-1-yl]-2-fluoro-phenyl}-ethanone] | 0.029 (≈ 0.0842 µM) | 1.1 | 9.4 | 20% of control | 86% of control | 15% of control | 82% of control | 52% of control | 40% of control | 77% of control | 74% of control | 170 |  | 169 |  | 0.0026 (≈ 0.00755 µM) |  | 
COc1cc(NCc2ccc3nc(N)nc(N)c3c2C)cc(OC)c1OC [Trimetrexate, reference compound] | 0.152 (≈ 0.411 µM) | 22 | 6.8 | 12% of control | 85% of control | 9% of control | 80% of control |  |  | 77% of control | 75% of control | 164 | 113 | 119 |  | 0.0069 (≈ 0.0187 µM) | without activity | activity against P388/ADR tumors in vivo (P388/ADR leukemia; in words): inactive; Antifol + FU (P388/ADR cells [3]; TMQ 10 nM 24 hours): 83% of control; Antifol + LV (P388/ADR cells [3]; TMQ 10 nM 24 hours): 100% of control; Antifol + LV + FU (P388/ADR cells [3]; TMQ 10 nM 24 hours): 76% of control; Antifol (P388/ADR cells [3]; TMQ 10 nM): 92% of control; activity alone against P388/ADR cells (P388/ADR cells [3]; [9]): little activity alone; increase in activity by addition of FU or LV, P388/ADR cells (P388/ADR cells [3]; [9]): nor was a significant increase in activity observed; Antifol + FU ([7]; C26, antifolate 0.125 μM 24 hours, 5 μM FU final 4 hours): 65% of Control; Antifol + LV ([7]; C26, antifolate 0.125 μM 24 hours, LV 10 μM final 4.5 hours): 98% of Control; Antifol + FU + LV ([7]; C26, antifolate 0.125 μM 24 hours, LV 10 μM final 4.5 hours, 5 μM FU final 4 hours): 64% of Control; Antifol ([7]; C26, antifolate 0.125 μM, 24 hours): 101% of Control; effect on C26 proliferation alone ([7]; in words, 0.125 μM): no effect; synergy with FU and/or LV on C26 cells ([7]; in words, 0.125 μM): no significant synergy; response rate (colon cancer; TMQ added to LV/FU, colon cancer patients previously treated with FU): 20%; response rate (colon cancer; combination of TMQ, FU and LV, metastatic colorectal cancer patients): 50%; Antifol + FU ([5]; antifolate 62.5 nM 24 hours, 5 μM FU final 4 hours): 35% of control; Antifol + LV + FU ([5]; antifolate 62.5 nM 24 hours, LV 10 μM final 4.5 hours, 5 μM FU final 4 hours): 30% of control
Cc1nc(N)nc(N)c1N1CCN(c2ccc(C=O)cc2)CC1 [Example 1] | 0.0068 (≈ 0.0218 µM) | 1.1 | 7.6 |  |  |  |  |  |  |  |  | 190 | 169 | 263 | 0.073 | 0.005 (≈ 0.016 µM) | curative | 

Reference: patent US20040006042A1, “Diaminopyrimidines and combination therapies effective for treatment of P-glycoprotein positive cancers” (priority 1998, published 2004)
